Measurements: patent US8906694B2, “Organometallic fluorescent sensors for nitric oxide detection and imaging” (The Florida International University Board of Trustees, priority 2012, dated 2014)

Tests used:
[1] = tested on: Rat Aortic Endothelial Cells; assay: Fluorescence microscopy NO imaging in living cells with NO donor addition; format: cell-based; details: for absorptivity of the dye into the cells: living cells, fluorescence microscopy
Excerpt: Rat Aortic Endothelial Cells acquired from Cell Biologics were used for the cell based experiments. Fetal Bovine Serum (FBS) and DMSO were bought from ATCC. Penicillin-Streptomycin and endothelial cell growth supplement from bovine neural tissue were bought from Sigma Aldrich. DMEM/F-12 medium, PBS and Trypsin (0.05% EDTA) were bought from Invitrogen. Cell culture flasks and dishes were bought from Fisher Scientific. MAHMA/NO was bought from Cayman Chemicals.
Cell culture: Rat Aortic Endothelial Cells were grown (passage 4-10) in DMEM/F-12 medium supplemented with 10% FBS, 1% penicillin-streptomycin, and endothelial cell growth supplement in a humidified tissue culture incubator at 37° C. equilibrated with 95% air/5% CO2. For experimentation, cells were cultured in 35×10 mm dishes seeded with 2×10^5 cells and used at 60-80% confluency.
After the loading phase with the organometallic Re-complex (10 μM for 45 min) cells were rinsed off excess dye using PBS buffer solution. This was followed by an exposure to 10 μM MAHMA/NO for 10-15 minutes. Images were then acquired with a fluorescence microscope (Olympus IX 81 fitted with a CCD camera (Qimaging) at 350 nm (excitation) and 450 nm (emission) with 20× zoom, with exposition time of 2668 ms. The data were analyzed with IPLAB software (BioVision Technologies).
Conditions of incubator: 37° C., 21% O2, 5% CO2, with cell culture harvested and plated for at least 24 hours.
[…] of Re(phen)(THF)(CO)2(CF3SO3) or Re(phen)(CO)2(PPh3)(CF3SO3) (1.6×10^−3 M) was prepared in THF. 62.5 μL of this solution was added to 138 μL of acetone. This new solution was added to 800 μL of 10 mM PBS (Phosphate Buffer Saline) buffer solution, resulting in v/v ratios of 6% THF, 14% acetone, and 80% Buffer. This new solution was further diluted 1/10 with PBS Buffer before added to the cells, resulting to final solvent composition of 0.6% THF, 1.4% acetone, and 98% v/v aqueous buffer. This final solution contains the organometallic Re dye at 10 μM concentration, (solution A) before contact with NO donor solutions.
A blank (0 μM NO donor: MAHMA NONOate) and 3 stock solutions (100 μM, 500 μM, 1 mM) MAHMA NONOate were prepared in NaOH 0.01M, which after addition to the media result to final NO donor concentrations of 0 μM, 1 μM, 5 μM, 10 μM.
The old media were poured out from the plates. The plates were rinsed 2 times with 1 mL PBS 10 mM. The next reagents were added to each plate in the following order: […] of DMEM/FBS/Penicillin Media, […] of PBS 10 mM, and 100 μL of Re complex stock in 20% organic mixture. The plates were incubated for 75 minutes.
The reactive media was poured out from the plate. The plates were rinsed 2 times with 1 mL PBS 10 mM. […]

[2] = Fluorescence spectroscopy NO sensing in solution after addition of NO donor MAHMA-NONOate; details: NO donor MAHMA-NONOate in buffer solution; aerobic and anaerobic conditions for the THF complex
Procedure: A pilot Re(I)-phenanthroline complex: Re(phen)(CO)2(THF)(CF3SO3) complex was synthesized from Re(phen)(CO)3(CF3SO3) (Scheme 3) by photochemical substitution of a CO with THF in situ and was tested for NO sensing by fluorescence spectroscopy after the addition of the NO donor: MAHMA-NONOate (Cayman Pharmaceuticals) at the are 10 μM-200 μM range (FIGS. 1 and 2). […] It is worth mentioning the dye is highly sensitive to NO, since it is only used at a concentration of only 10 μM, and responds to concentrations of NO donor in the μM level as well (FIG. 5). […] Furthermore live cell experiments with Re(phen)(CO)2(THF)(CF3SO3) prepared by thermal substitution gave similar results.
A stepwise experimental protocol for preparation and testing of the Rhenium organometallic sensor and comparison with existing technology is as follows: • 1) Preparation of a stock solution of a 2.0 mM NO donor solution by dissolving 0.6 mg of (Z)-1-[N-Methyl-N-[6-(N-methylammoniohexyl)amino]]diazen-1-ium-1,2-diolate (Methylamine hexamethylene methylamine NONOate or MAHMA NONOate) in 0.01 M NaOH. Solution is kept at 4° C. until use. • 2) Preparation of a 1.0 mM stock solution of probe LRe(CO)3(OSO2CF3) in DMSO or THF (L is phen or substituted analog). For the Re probe the solution is undergoing the following steps: […]

Row | Structure (SMILES) | toxicity to the cells ([1]; at the 10 μM level) | absorptivity of the dye into the cells ([1]; dye 10 μM) | fluorescent response to NO donor addition in solution [2] | fluorescence response to NO donor addition in living cells ([1]; dye 10 μM, MAHMA-NONOate 0-10 μM, λexc=350 nm, λem=450 nm)
1 | O=[C]=[Re]1(=[C]=O)([O]S(=O)(=O)C(F)(F)F)([PH](c2ccccc2)(c2ccccc2)c2ccccc2)[N]2C=CC=c3ccc4c(c32)[N]1C=CC=4 [Re(phen)(CO)2(PPh3)(CF3SO3)] | no toxicity | good dye absorptivity into cells | shows response to NO addition | 
2 | C1CCOC1.O=[C]=[Re]1(=[C]=O)([O]S(=O)(=O)C(F)(F)F)[N]2C=CC=c3ccc4c(c32)[N]1C=CC=4 [Re(phen)(CO)2(THF)(CF3SO3)] |  | good absorptivity | responds directly to NO | direct response
